Experimental data as given in PubChem BioAssay (NCI).
Values joined by “and” are separate entries in the source; they are usually repeats but may differ in a detail not shown here. Equal entries are not always repeated.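 Growth conditions: 96-well plates. Treatment: test compound, 48 hours, 5 concentrations. Analysis: linear interpolation between bracketing concentrations; unreached endpoints set to highest concentration. GI50: concentration for 50% inhibition of growth. TGI is the concentration that stops growth completely.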

Columns and labels:
Test in all cases: NCI tumour cell line growth inhibition, 48 h
[1] = tested on: DLD-1 colon
[2] = tested on: DMS 114 small cell lung
[3] = tested on: DMS 273 small cell lung
[4] = tested on: HOP-18 NSCLC
[5] = tested on: KM20L2 colon
[6] = tested on: LXFL 529 NSCLC
[7] = tested on: RXF-631 renal
[8] = tested on: MDA-N
[9] = tested on: P388 leukemia
[10] = tested on: P388/ADR leukemia
[11] = tested on: SN12K1 renal

Row | Compound | TGI [1] | TGI [2] | TGI [3] | TGI [4] | TGI [5] | TGI [6] | TGI [8] | other results
1 | Cc1nnc2n1N=C(c1ccccc1)C(c1ccccc1)S2 (stereo unspecified) | > 100 µM | 52.4 µM | > 100 µM | > 100 µM | 76.3 µM | > 100 µM | – | –
2 | COC(=O)C1CC(c2ccc(OC)c(OC)c2)OC1=O (mixture of isomers) | > 100 µM | > 100 µM | > 100 µM | – | > 100 µM | > 100 µM | – | TGI [7]: > 100 µM
3 | COC1(OC)C2(Cl)C3=CCCC=C3C1(Cl)C(Cl)=C2Cl | > 100 µM | 49.9 µM | 39.8 µM | – | 60.4 µM | > 100 µM | – | TGI [7]: 30.3 µM
4 | Cc1cc(Cl)ccc1NC(=O)CCCC(=O)C1C/C(=N/O)CC/C1=N\O (stereo unspecified) | > 100 µM | > 100 µM | > 100 µM | > 100 µM | > 100 µM | > 100 µM | – | TGI [7]: > 100 µM
5 | Clc1ccccc1C(Nc1cnccn1)Nc1cnccn1 | – | – | – | – | – | – | > 100 µM | –
6 | Cn1c(=O)oc2cc(C3CCC(=O)N3Cc3csc(-c4ccccc4)n3)ccc21 (stereo unspecified) | > 100 µM | > 100 µM | > 100 µM | > 100 µM | > 100 µM | > 100 µM | – | –
7 | CCOc1c(Br)cc(Br)cc1C=C(C#N)C#N | – | – | – | – | – | – | > 10 µM | –
8 | Cc1cc(=O)[nH]c(NNC(C#N)c2cccc([N+](=O)[O-])c2)n1 (stereo unspecified) | > 100 µM | > 100 µM | > 100 µM | > 100 µM | > 100 µM | > 100 µM | – | –
9 | CC(=O)[CH-]C(C)=O.CC(=O)[CH-]C(C)=O.[O-]c1ccccc1.[O-]c1ccccc1.[Ti+4] | > 100 µM | > 100 µM | > 100 µM | > 100 µM | > 100 µM | > 100 µM | – | GI50 [1]: > 100 µM; GI50 [2]: > 100 µM; GI50 [3]: > 100 µM; GI50 [4]: > 100 µM; GI50 [5]: > 100 µM; GI50 [6]: > 100 µM
10 | CC1CCC2C(C)C(=O)OC2C2(C)C(=O)C=CC12 (stereo unspecified) | – | – | – | – | – | – | > 10 µM | –
11 | OCC(O)C(O)C(O)C(/C=N\Nc1ncnc2c(Br)cc(Br)cc12)=N/Nc1ncnc2c(Br)cc(Br)cc12 (stereo unspecified) | – | – | – | – | – | – | 23.2 µM and > 100 µM | –
12 | N#C/C(=C\c1ccc2[nH]ccc2c1)C(=O)NCCCCNC(=O)/C(C#N)=C/c1ccc2[nH]ccc2c1 | > 100 µM | > 100 µM | > 100 µM | – | > 100 µM | > 100 µM | > 10 µM | –
13 | [N-]=[N+]=CC(=O)CCC(N)C(=O)O (stereo unspecified) | > 170 µM | 95.5 µM | > 250 µM | > 250 µM | > 250 µM | – | > 250 µM | GI50 [8]: 2.26 µM; TGI [9]: 21.9 µM; TGI [10]: 30.4 µM; TGI [11]: 141 µM
14 | Cc1ccc(C2=CC(=O)c3ccccc3C2=O)n1-c1ccccc1 | > 100 µM | 55.2 µM | > 100 µM | > 100 µM | > 100 µM | > 100 µM | – | –
15 | O=c1[nH]ccc(CNC23CC4CC(CC(C4)C2)C3)c1O | > 100 µM | – | > 100 µM | > 100 µM | > 100 µM | > 100 µM | – | –
16 | CN1CCCC2[C@@H]3CCC4c5nonc5CC[C@]4(C)C3CC[C@@]21C (stereo partly specified) | > 100 µM | > 100 µM | > 100 µM | > 100 µM | > 100 µM | > 100 µM | – | –
17 | c1cnc2c(c1)-n1cccc1C1(CCCCC1)NN2 | – | > 100 µM | > 100 µM | > 100 µM | – | – | – | –
18 | C[C@@H]1C[C@@H]([C@H](O)CC2CC(=O)NC(=O)C2)C(=O)[C@@H](C)C1 | 1.98 µM | 1.79 µM | – | – | 21.5 µM | 0.623 µM | – | TGI [7]: 0.608 µM
19 | O=c1c2cccnc2ncn1CCCN1CCCCC1 | > 100 µM | > 100 µM | > 100 µM | – | – | – | – | –

Row | Compound | TGI [1] | TGI [2] | TGI [3] | TGI [4] | TGI [5] | TGI [6] | TGI [8] | other results
20 | O=c1c(Cc2ccccc2)c(O)cc2n1CCC2 | > 100 µM | > 100 µM | – | > 100 µM | > 100 µM | > 100 µM | – | TGI [7]: > 100 µM
21 | N=C1CCCC1C(=S)SCCC(N)=O (stereo unspecified) | – | – | – | – | – | – | > 100 µM | –
22 | CC(C)(C)C#COC(=O)c1ccccc1 | > 100 µM | > 100 µM | – | – | > 100 µM | > 100 µM | – | –
23 | O=C1CC23CCCCCCCCCCC2(C1)CC(=O)C3 (stereo unspecified) | > 100 µM | 77.6 µM | 52.5 µM | 92.7 µM | – | > 100 µM | – | –
24 | C1=CC(=P(c2ccccc2)(c2ccccc2)c2ccccc2)C=C1 | 62.5 µM | 15.9 µM | 26.4 µM | – | 31.1 µM | 13 µM | – | TGI [7]: 46.7 µM
25 | O=C(CC1=Nc2nnc(CCCCCCCc3nnc4n3C(=O)C(CC(=O)c3ccc5ccccc5c3)=N4)n2C1=O)c1ccc2ccccc2c1 | > 100 µM | > 100 µM | > 100 µM | > 100 µM | > 100 µM | > 100 µM | – | TGI [7]: > 100 µM
26 | COc1ccc(-c2nc3ccccc3s2)cc1OC | – | – | – | – | – | – | > 100 µM | –
27 | Cc1cc2c(c(C(=O)O)c1C)-c1cccc(Cl)c1C2=O | > 100 µM | > 100 µM | > 100 µM | – | > 100 µM | > 100 µM | – | –
28 | c1ccc2c(c1)[nH]c1c2nc2ccccn21 | > 100 µM | > 100 µM | > 100 µM | > 100 µM | > 100 µM | > 100 µM | – | TGI [7]: > 100 µM
29 | Cc1c(C)c([N+](=O)[O-])c2c(c1N)C(=O)c1ccccc1C2=O | > 100 µM | > 100 µM | > 100 µM | > 100 µM | > 100 µM | > 100 µM | – | –
30 | O=C(Nc1ccc(Cl)cc1C(F)(F)F)C(=O)Nn1c(=S)[nH]c2ccccc2c1=O | – | – | – | – | – | – | > 100 µM | –
31 | CC(=O)N1[C@H](C(=O)O)CS[C@H]1c1ccc(F)cc1 | – | > 100 µM | – | > 100 µM | – | > 100 µM | – | TGI [7]: > 100 µM
32 | Oc1ccc(Cl)cc1C=Nc1cnc2ccccc2c1 | – | – | – | – | – | – | > 100 µM | –
33 | Cc1cccc(C)c1NC(=O)C(=O)Cc1nc2ccccc2s1 | > 100 µM | > 100 µM | > 100 µM | – | > 100 µM | > 100 µM | – | –
34 | Cc1cccc(C2NC(=O)c3ccccc3N2)c1 (stereo unspecified) | – | – | – | – | – | – | 3.45 µM | –
35 | O=c1c(-c2ccc3c(c2)OCO3)coc2c3c(ccc12)OCO3 | – | – | – | – | – | – | > 100 µM | –
36 | COc1ccc(-c2ccc(CC(=O)O)cc2)cc1OC | > 100 µM | > 100 µM | – | – | > 100 µM | > 100 µM | – | –
37 | CC(=O)Nc1ccc(C2CC(c3ccc([N+](=O)[O-])cc3)=Nc3ccccc3S2)cc1 (stereo unspecified) | 32.4 µM | – | 71.4 µM | 78.2 µM | 47.9 µM | 41.7 µM | – | TGI [7]: 70 µM
38 | CN(C)C(=S)/N=c1\ss/c(=N\C(=S)N(C)C)n1-c1cccc(Cl)c1 | – | > 100 µM | > 100 µM | – | > 100 µM | – | – | –
